Laboratory results: patent US11278509B2, “Lithium salts of N-substituted glycine compounds and uses thereof” (SyneuRx International (Taiwan) Corp., priority 2017, dated 2022)

What was measured:
Type in all cases: in vivo, C57BL/6J male mice
[1] = tested on: MK801-treated mice; assay: Open field task, MK801-induced hyper-locomotion; conditions: for effect on MK-801 induced hyper-locomotion activity (travel distance, open field): 60 minutes
Description: (§1) All C57BL/6J male mice were purchased from Laboratory Animal Center of the College of Medicine of National Taiwan University. The mice were group housed (3-5 mice per cage) with food and water available ad libitum in polysulfone ventilated cages (Alternative Design, AR, USA) in the animal rooms of the Psychology Department of National Taiwan University. The colony was maintained on a 12/12-h light/dark cycle at the temperature of 22±2° C. and all behavioral studies were performed during dark cycle. All animals used in this study were adult mice (at least 2.5 months of age). All animal procedures were performed according to the protocols approved by Animal Care and Use Committee of National Taiwan University.
(§2) MK801, also known as dizocilpine, is an antagonist of NMDA receptor. Mice in Groups 2-6 were received an acute administration of MK-801 (a NMDA receptor antagonist, dissolved in normal saline, 0.1 or 0.2 mg/kg, i.p.) 20 min prior to behavioral tests. Mice in Groups 3-6 were received an oral gavage of N-methylglycine or lithium N-methylglycine, respectively (dissolved in PBS) 15 min prior to MK801 administration. The […] molarities of lithium N-methylglycine (300 mg/kg and 1000 mg/kg) were equal to those of N-methylglycine (278 mg/kg and 927 mg/kg), respectively.
(§3) Two cohorts ([…]) of mice were used in the present study, the cohort 1 (48 mice) were sequentially tested with open field (for MK801-induced hyper-locomotion) and pre-pulse inhibition (for sensor-motor gap function) tasks. The mice in cohort 2 (34 mice) were sequentially tested with Barnes maze (spatial learning and memory) task.
The open field task is a common measure of novel environment-induced exploratory behavior and general activity in both mice and rats. In the present study, the mice were placed in a Plexiglas cage (37.5 cm×21.5 cm×18 cm) under 50-65 lux light intensity, and their spontaneous locomotor activity was measured for 60 minutes using the EthoVision video tracking system (Noldus Information Technology, the Netherlands). The travel distance of each mouse was measured as an index of locomotion activity.

[2] = tested on: MK801-treated mice; assay: Pre-pulse inhibition task, sensorimotor gating
Description: as §1
MK801, also known as dizocilpine, is an antagonist of NMDA receptor. Mice in Groups 2-6 were received an acute administration of MK-801 (a NMDA receptor antagonist, dissolved in normal saline, 0.1 or 0.2 mg/kg, i.p.) 20 min prior to behavioral tests. […]
Pre-pulse inhibition was used as an index of sensorimotor gating function using SR-LAB startle apparatus (San Diego Instruments, San Diego, Calif., USA). […] The percentage of pre-pulse inhibition was evaluated by the following formula: % PPI=100×[(PA score)−(pp-P score)]/(PA score), where the PA score was the average of the PA value in the middle blocks.

[3] = tested on: MK801-treated mice; assay: Barnes maze task, spatial learning and memory; conditions: MK-801 0.2 mg/kg i.p.
Description: as §1, §2, §3
Mice were tested in a Barnes maze to examine spatial learning and memory as described previously (Barnes, 1979). This Barnes maze paradigm has been commonly examined in mouse models of CNS disorders, including, but not limited to, schizophrenia, depression, obsessive compulsive disorder, post-traumatic stress disorder, addiction disorders, Alzheimer's disease, frontotemporal dementia, Parkinson's disease, Duchenne muscular dystrophy, stroke, and Fragile X syndrome (see Cook et al., 2014; Gotz and Ittner, 2008; Hendriksen and Vles, 2008; Conklin et al., 2000; Song et al., 2006; Lai et al., 2014; Vasterling et al., 2002; Hyman, 2005; Schaar et al., 2010; Santos et al., 2014; Zhu et al., 2007; Deckersbach et al., 2000). The testing apparatus was an elevated (50 cm above the floor) circular Plexiglas plate (100 cm in diameter) with 20 holes (7 cm in diameter, 7 cm between holes) evenly spaced around the perimeter. Mice were trained on the plate to identify an escape box (25×8×6 cm) hidden behind the target hole, which was designated as an analog to the hidden platform in the Morris water maze task. The location of the target hole was selected for a given mouse but randomized across mice. Mice were initially placed in the center of the plate covered by an opaque cylinder, and the cylinder was removed 10 s after the beginning of the trial with both an aversive tone (440 Hz, 85 dB) and light (100 lux) switched on. […] The spatial memory was measured by the “probe test.” All the training trials and the probe tests were videotaped for 3 min, and then the escape latency for the training trials and the percentage of time in different quadrants (target, left, right, and opposite) during the probe test were analyzed. […]

[4] = MK-801 0.1 or 0.2 mg/kg i.p. 20 min prior to test

SMILES: C[C@]12N[C@H](Cc3ccccc31)c1ccccc12 [MK-801, dizocilpine, reference compound]
- locomotion in the open field test compared to the control group [1, 4]: induced the hyper-locomotion
- sensorimotor gating function in the pre-pulse inhibition test compared to the control group [2, 4]: induced the sensorimotor gating function deficit
- learning ability and memory in the Barnes maze task compared to the control group [3]: poor learning ability and memory deficit

SMILES: CNCC(=O)O [N-methylglycine, reference compound]
- effect on MK-801 induced hyper-locomotion activity (travel distance, open field) ([1]; 927 mg/kg oral gavage 15 min prior to MK801 i.p.): marginally effective
- memory phase (probe test) after MK-801 induced memory deficit ([3]; dose not stated): not effective

SMILES: CNCC(=O)O.[Li] [lithium N-methylglycine]
- dose dependence of effect on MK-801 induced hyper-locomotion ([1]; 300 mg/kg and 1000 mg/kg oral gavage + MK-801): Dose-dependent effect
- effect on MK-801 induced hyper-locomotion activity (travel distance, open field) ([1]; 300 mg/kg oral gavage 15 min prior to MK801 i.p.): effective
- effect on MK-801 induced hyper-locomotion activity (travel distance, open field) ([1]; 1000 mg/kg oral gavage 15 min prior to MK801 i.p.): effective
- reducing hyperactivity induced by MK-801, compared with N-methylglycine ([1]; equal molarities: 300/1000 mg/kg vs 278/927 mg/kg): much more effective than N-methylglycine
- effect on MK-801 induced deficit in pre-pulse inhibition (% PPI) ([2]; 300 mg/kg and 1000 mg/kg oral gavage + MK801, prepulse 78, 82, 90 dB, especially at 90 dB): alleviated
- learning phase (escape latency in training trials) after MK-801 induced learning deficit ([3]; 1000 mg/kg oral gavage): enhances the learning
- recovery of memory deficit induced by MK-801, compared with N-methylglycine [3]: much superior as compared with N-methylglycine
- memory phase (time in target zone, probe test) after MK-801 induced memory deficit ([3]; high dose (1000 mg/kg) oral gavage): completely ameliorated the memory deficit
